# Measurements: patent US12673039B2, “Methods of inducing autophagy using coumarin derivatives and related compounds” (Buck Institute for Research on Aging, priority 2019, dated 2026)
# What was measured:
# SH-SY5Y-P301L-TAU cells = assay: Phosphorylated-TAU immunoblot in SH-SY5Y-P301L-TAU cells; format: cell-based, human; conditions: SH-SY5Y cells expressing mutant P301L-TAU, 24 hours
# Method: (§1) FIG. 30, panels A-B: FXR modulation enhances HLH-30 expression in human neuronal SH-SY5Y cell. Panel A) TFEB expression in SH-SY5Y cells was determined by immunoblot against TFEB in protein lysates collected after 24 hours of treatment with FXR agonist GW4064 and DMSO control. Panel B) Phosphorylated-TAU levels in SH-SY5Y-P301L-TAU cells was determined by immunoblot against (Ser202, Thr205) in protein lysates collected after 24 hours of treatment with known FXR antagonist Z-gugglsterone (z-GG), DY268 and DMSO control.
# SH-SY5Y cells = assay: Immunoblot of TFEB, cathepsin-D and SHP-1 in SH-SY5Y cells; format: cell-based, human; conditions: 24 hours
# Method: FIG. 23, panels A-H: FXR modulation enhances HLH-30 expression in human neuronal SH-SY5Y cells. Panel A) Effects of AIC106 on human FXR activity was determined in a mammalian one-hybrid based kit assay by quantifying changes in the luciferase activity of FXR ligand (GW4064, GW) induced treatment. [N=3 independent experiments (mean±SD). ****p<0.0001, by one-way ANOVA with Tukey's multiple comparisons test]. Panel B) Protein expression of TFEB, cathepsin-D (CAT-D) and small heterodimer partner-1 (SHP-1) was determined by immunoblot in neuronal SH-SY5Y cells post-24 hours of treatment with AIC106 and DMSO-control. Panel C) AIC106 enhances autophagic flux in neuronal SH-SY5Y cells. Autophagic flux in DMSO-control and AIC106 treated neuronal cells was determined by quantifying levels of autophagosome specific LC3-II protein both in presence and absence of autophagy inhibitor bafliomycin A1 (Baf A, 10 nM). Panel D) Relative fold change in the band intensity of LC3-II protein, normalized to loading control actin. Values are relative to DMSO-control. [N=3 independent experiments (mean±SD). *p<0.05 and ****p<0.0001, by one-way ANOVA with Tukey's multiple comparisons test]. Panel E) Effects of AIC106 treatment for 72 hours on basal TAU and phosphorylated-TAU in differentiated human neuronal SH-SHY5Y and heterozygous TSC1(+/−) mutant SH-SY5Y neuronal cells were quantitated by immunoblotting following total protein extraction. Relative fold change in the band intensity compared to SH-SY5Y control treatment for (panel F) total TAU and (panel G) phosphorylated-TAU, normalized to loading control GAPDH. [N=3 independent experiments (mean±SD). *p<0.05 and **p<0.01, by one-way ANOVA with Sidak's multiple comparisons test]. Panel H) AIC106 treatment improves viability and health of differentiated SH-SY5Y-TSC1(+/−) neuronal cells. Images were taken post-96 hours after treatment of differentiated neuronal cells with AIC106.
# as §1
Structure (SMILES),phosphorylated-TAU expression (SH-SY5Y-P301L-TAU cells),TFEB protein expression (SH-SY5Y cells)
COc1cccc(Cn2cc(C(=O)Nc3ccc(C)c(S(=O)(=O)N4CCOCC4)c3)c(-c3ccc(C)cc3)n2)c1 [DY268],reduced expression of phosphorylated-TAU,
"CC(C)c1onc(-c2c(Cl)cccc2Cl)c1COc1ccc(/C=C/c2cccc(C(=O)O)c2)c(Cl)c1 [GW4064, reference compound]",,reduced TFEB expression
C/C=C1\C(=O)C[C@H]2[C@@H]3CCC4=CC(=O)CC[C@]4(C)[C@H]3CC[C@]12C [Z-guggulsterone],reduced expression of phosphorylated-TAU,
